According to US20220244279A1, “ASSAYS AND METHODS FOR SCREENING FOR CARDIOVASCULAR DISEASE USING LDL SUBCLASSES AND ENDOTHELIAL NITRIC OXIDE/PEROXYNITRITE BALANCE” (Ohio University, priority 2019, published 2022):
Entries after “also recorded” stand apart in the source; their conditions may differ.

System: human umbilical vein endothelial cells (HUVECs)
Assay: Effect of eNOS pathway modulators on LDL-stimulated NO and ONOO− release
Format: cell-based
Settings: for ONOO− production after pre-treatment vs control / NO production after pre-treatment vs control: 30 min pre-treatment, then LDL subclass A, B or I 800 μg/mL; for [NO]/[ONOO−] ratio with subclass I: pre-treatment, then subclass I 800 μg/mL; for effect on ratio of [NO]/[ONOO−]: modulators of L-arginine/NO pathway
Procedure: Concurrent measurements of NO and ONOO^− were performed with electrochemical nanosensors (diameter: 200-300 nm). The designs of nanosensors are based on chemically modified carbon-fiber technology. Each of those sensors was made by depositing a sensing material on the tip of the carbon fiber. A conductive film of polymeric nickel (II) tetrakis (3-methoxy-4hydroxy-phenyl) porphyrinic was used for the NO sensor and a polymeric film of Mn (III)-paracyclophanyl-porphyrin was used for the ONOO^− sensor. NO and ONOO^− release from its basal level were measured by using amperometry with time (detection limit of 1 nmol/L and resolution time <50 ms). Each sensor was calibrated by using linear calibration curves from 50 nmol/L to 1000 nmol/L and/or standard addition methods before and after measurements with aliquots of NO or ONOO^− standard solutions, respectively.
Endothelial cells were seeded to 24 well plates and cultured in complete medium until confluent monolayer formed. Then the study was carried out as follows:
A control group was incubated in EBM only. After incubation, endothelial cells were stimulated with direct injection of subclasses A, B and I (800 μg/mL), and the release of NO/ONOO^− was measured with nanosensors.

Row | SMILES | ONOO− production after pre-treatment vs control | [NO]/[ONOO−] ratio with subclass I | NO production after pre-treatment vs control | effect on ratio of [NO]/[ONOO−] | decrease of ONOO− concentration (VAS2870 10 μmol/L, LDL 800 μg/mL)
1 | COC(=O)[C@@H](N)CCCNC(=N)N[N+](=O)[O-] [L-NAME, L-N^G-arginine methyl ester] | diminished | lower than one | – | – | –
2 | N=C(N)NCCC[C@H](N)C(=O)O [L-arginine] | diminished; also recorded: decrease ONOO^− generation | greater than one | increase NO production | favorably increasing the ratio of [NO]/[ONOO^−] | –
3 | c1ccc(Cn2nnc3c(Sc4nc5ccccc5o4)ncnc32)cc1 [VAS2870] | diminished | – | – | – | 20-27 % of control group
4 | C[C@H](O)C(=O)C1=Nc2c(nc(N)[nH]c2=O)NC1 [sepiapterin] | diminished; also recorded: lower level of ONOO^− | greater than one | higher level of NO | favorably increasing the ratio of [NO]/[ONOO^−] | –
